Entries after “also recorded” stand apart in the source; their conditions may differ.
How the values were obtained:
[1] = tested on: healthy, drug-free male volunteers; test: Safety and tolerability of noribogaine in healthy humans; format: in vivo, human
Experimental: (§1) Safety and tolerability of noribogaine were tested in the group of volunteers from Example 9. […] Safety evaluations included clinical monitoring, recording of adverse events (AEs), safety laboratory tests, vital signs, ECG telemetry from −2 h to 6 h after dosing, and 12-lead electrocardiograms (ECGs) up to 216 hours post-dosing.

cynomolgus monkey = test: Single dose toxicity in cynomolgus monkeys; format: in vivo; conditions: oral gavage
Experimental: The objective of the study was to determine the toxicity and toxicokinetic profile of noribogaine following oral (gavage) administration to the cynomolgus monkey. Each dose was followed by a 7 day washout period. Dosing was staggered by 45 minutes. On study day 15, one animal was administered 80 mg/kg and the other animal was administered 160 mg/kg. The test article was administered as follows in Table 1:
Parameters monitored on the study included: mortality, clinical signs and body weights. Blood samples were collected for TK evaluation. […] The single dose maximum tolerated dose (MTD) was determined to be greater than 160 mg/kg based on the parameters monitored during the study.

dogs = test: Single dose (acute oral) toxicity/TK study in dogs; format: in vivo, dog
[2] = Pharmacokinetics of noribogaine in healthy male volunteers (plasma, urine, LCMSMS)
[3] = tested on: healthy, drug-free male volunteers; test: Cold pressor test in healthy volunteers; format: in vivo, human; conditions: 3-60 mg single oral dose, 1° C. water
Experimental: Analgesic effect was assessed based on duration of hand immersion in ice water and on visual analog scale (VAS) pain scores upon hand removal from the water bath.
as §1

Sprague-Dawley rat = test: Food maintained responding test, regulation of food intake in rats; format: in vivo
[4] = tested on: opioid-dependent participants; test: QT interval evaluation in opioid-dependent patients; format: in vivo, human; conditions: 60, 120, 180 mg, first 24 hours; correlated with serum concentration
Experimental: Patients' QT intervals were evaluated at regular time points throughout the study.

[5] = 30 mg single oral dose, plasma, mean (SD), n = 6

CC[C@H]1CC2C[C@H]3c4[nH]c5ccc(O)cc5c4CCN(C2)C13 [noribogaine]
adverse events, Mild ([1]; 3 mg): Dizziness; also recorded: Epistaxis; also recorded: Headache; also recorded: Back pain
adverse events, Moderate ([1]; 3 mg): Headache
number of adverse events reported ([1]; 3 mg dose group): five adverse events were reported by two subjects
adverse events, Mild ([1]; 10 mg): Headache
number of adverse events reported ([1]; 10 mg dose group, single subject): one adverse event
adverse events, Mild ([1]; 30 mg): Headache
number of adverse events reported ([1]; 30 mg dose group, single subject): one adverse event
oximetry, capnography, respiratory rate ([1]; 3-60 mg): no changes in oximetry or capnography, or changes in respiratory rate
vital signs and safety laboratory tests ([1]; 3-60 mg): no changes in vital signs or safety laboratory tests of note
QTcF values ([1]; 3-60 mg, at any time): ≤ 500 ms
single increase in QTcF ([1]; one subject dosed with 10 mg, 24 hours post-dosing): > 60 ms
single dose maximum tolerated dose (MTD) (cynomolgus monkey): greater than 160 mg/kg
mortality and clinical signs (cynomolgus monkey; doses up to and including 160 mg/kg): No mortality or treatment related clinical signs
findings at NOAEL dose (dogs; 5 mg/kg): only transient reduction in food consumption in one dog
clinical signs (dogs; 10 mg/kg, from 20 minutes until 3 h 40 m post-dose): Convulsions and other CNS-related clinical signs
mortality (dogs; 5 (n=2) or 10 (n=2) mg/kg oral): no mortality occurred
CL/F ([2]; 3 mg single oral dose, plasma, mean (SD), n = 6): 41.4 (7.0) L/h
CL/F ([2]; 10 mg single oral dose, plasma, mean (SD), n = 6): 42.3 (12.0) L/h
CL/F [2, 5]: 46.9 (16.4) L/h
Tmax [2, 5]: 1.8 (0.6) hr
CL/F ([2]; 60 mg single oral dose, plasma, mean (SD), n = 6): 34.0 (11.4) L/h
dose dependence of Cmax and AUC ([2]; 3-60 mg): increased linearly with dose
mean half-life estimates ([2]; across dose groups 3-60 mg): 28 to 50 h
time of peak concentrations after oral dosing ([2]; across dose groups 3-60 mg): 2 to 3 h
volume of distribution ([2]; across dose groups 3-60 mg): 1417 to 3086 L
analgesic effect (duration of hand immersion, VAS pain scores) [3]: no analgesic effect
decrease in food intake (Sprague-Dawley rat; 25 mg/kg PO, P<0.05): 10%
decrease in food intake (Sprague-Dawley rat; 50 mg/kg PO, P<0.001): 25%
effect on food consumption compared to vehicle (Sprague-Dawley rat; noribogaine 12.5 mg/kg PO 2 hours prior to test): no significant effect; also recorded: no effect on food consumption
effect on food consumption compared to vehicle (Sprague-Dawley rat; noribogaine 25 mg/kg PO 2 hours prior to test, P<0.05): significantly decreased food consumption
effect on food consumption compared to vehicle (Sprague-Dawley rat; noribogaine 50 mg/kg PO 2 hours prior to test, P<0.001): significantly decreased food consumption
QT interval prolongation (ΔQTcl) [4]: dose-dependent increase in QT interval prolongation
